US7572798B2, “Combi-molecules having signal transduction inhibitory properties and DNA damaging properties” (McGill University, priority 2001, dated 2009)
“Also recorded” adds a separate entry of the source.

Tests used:
[1] = tested on: NIH3T3 and NIH3T3HER14 cells; assay: Alkaline comet assay in isogenic pair NIH3T3 / NIH3T3HER14; format: cell-based, mouse; conditions: NIH3T3HER14 versus NIH3T3, 30 min
Procedure: The alkaline comet assay was performed as previously described (26). […] Cell suspensions were diluted to approximately 10^6 cells, and mixed with agarose (1%) in PBS at 37° C. in a 1:10 dilution. The gels were cast on Gelbond strips (Mandel Scientific, Guelph, Canada) using gel casting chambers, as previously described (31), and then immediately placed in a lysis buffer [2.5 M NaCl, 0.1 M tetra-sodium EDTA, 10 mM Tris-base, 1% (w/v) N-lauryl sarcosine, 10% (v/v) DMSO, and 1% (v/v) Triton X-100, pH 10.0]. After being kept on ice for 30 min, the gels were gently rinsed with distilled water and immersed in a second lysis buffer (2.5 M NaCl, 0.1 M tetrasodium EDTA, 10 mM Tris-base) containing 1 mg/ml proteinase K for 60 min at 37° C. Thereafter, the gels were rinsed with distilled water, incubated in alkaline electrophoresis buffer for 30 min at 37° C., and electrophoresed at 300 mA for 60 min. […] Comets were visualized at 330× magnification and DNA damage was quantitated using the Tail Moment parameter (i.e., the distance between the barycenter of the head and the tail of the comet multiplied by the percentage of DNA within the tail of the comet). A minimum of 50 cell comets were analyzed for each sample, using ALKOMET version 3.1 image analysis software, and values are averages of tail moments for the entire cell population per sample.

[2] = tested on: NIH3T3HER14 cells; assay: Growth factor-stimulated proliferation in NIH3T3HER14 cells (SRB); format: cell-based, mouse
Procedure: To study the effect of our compounds on growth factors stimulated proliferation, cells were grown to 70% confluence in 48-well plates and washed twice with PBS, after which they were exposed to serum-free medium for 18 h. The cells were then exposed to each drug and growth factors (EGF, TGFα, PDGF or serum) for 72 h and cell growth measured using the sulforhodamine B (SRB) assay (33). Briefly, following drug treatment, cells were fixed using 50 μl of cold trichloroacetic acid (50%) for 60 min at 4° C., washed five times with tap water, and stained for 30 min at room temperature with SRB (0.4%) dissolved in acetic acid (0.5%). The plates were rinsed five times with 1% acetic acid and allowed to air dry. […] Each point represents the average of at least two independent experiments run in triplicate.

[3] = tested on: MAPK; assay: EGF-induced MAPK phosphorylation in A431 cells (Western blot); format: cell-based, human; conditions: A431, at concentrations as low as 1 μM
Procedure: For the inhibition study of mitogen-activated protein kinase (MAPK) activation by BJ2000, protein lysates were obtained as described above and a Western blot was performed (39). The membrane was incubated with anti-phosphorylated MAPK antibodies or antibodies specific for MAPK (Cell Signaling, Beverly, Mass., USA).

[4] = tested on: A431 cells; assay: Alkaline comet assay for DNA damage in A431 cells; conditions: A431, 30 min or 2 h exposure
Procedure: A431 cells were exposed to drugs for 30 min or 2 h, and harvested with trypsin-EDTA. The cells were subsequently collected by centrifugation and re-suspended in PBS. The resulting cell suspension was diluted to approximately 10^6 cells, and mixed with agarose (1%) in PBS at 37° C. in a 1:10 dilution. The gels were cast on Gelbond strips (Mandel Scientific, Guelph, Canada) using gel casting chambers, as previously described (32), then immediately placed into a lysis buffer [2.5 M NaCl, 0.1 M tetra-sodium EDTA, 10 mM tris-base, 1% (w/v) N-lauryl sarcosine, 10% (v/v) DMSO and 1% (v/v) Triton X-100]. After being kept on ice for 30 min, the gels were gently rinsed with distilled water and then immersed in a second lysis buffer [2.5 M NaCl, 0.1 M tetra-sodium EDTA, 10 mM tris-base], containing 1 mg/ml proteinase K for 60 min at 37° C. Thereafter, the gels were rinsed with distilled water, incubated in alkaline electrophoresis buffer for 30 min at 37° C., and electrophoresed at 300 mA for 60 min. The gels were subsequently rinsed with distilled water and placed into 1 M ammonium acetate for 30 min. They were further soaked in 100% ethanol for 2 h, dried overnight and subsequently stained with SYBR Gold ( 1/10000 dilution of stock supplied from Molecular Probes, OR) for 20 min. For evaluation of comets, DNA damage was assessed using the Tail Moment parameter (i.e. the product of the distance between the barycentres of the head and the tail of the comet. A minimum of 50 cell comets were analyzed for each sample using ALKOMET v3.1 software, and values are an average of tail moments for the entire cell population.
Cell suspensions were diluted to approximately 10^6 cells, and mixed with agarose (1%) in PBS at 37° C. in a 1:10 dilution. The gels were cast on Gelbond strips (Mandel Scientific, Guelph, Canada) using gel casting chambers, as previously described (31), and then immediately placed in a lysis buffer [2.5 M NaCl, 0.1 M tetra-sodium EDTA, 10 mM Tris-base, 1% (w/v) N-lauryl sarcosine, 10% (v/v) DMSO, and 1% (v/v) Triton X-100, pH 10.0]. After being kept on ice for 30 min, the gels were gently rinsed with distilled water and immersed in a second lysis buffer (2.5 M NaCl, 0.1 M tetrasodium EDTA, 10 mM Tris-base) containing 1 mg/ml proteinase K for 60 min at 37° C. Thereafter, the gels were rinsed with distilled water, incubated in alkaline electrophoresis buffer for 30 min at 37° C., and electrophoresed at 300 mA for 60 min. The gels were subsequently rinsed with distilled water and placed in 1 M ammonium acetate for 30 min. They were soaked in 100% ethanol for 2 h, dried overnight, and subsequently stained with SYBR Gold ( 1/10000 dilution of stock supplied from Molecular Probes, Eugene, Oreg.) for 20 min. Comets were visualized at 330× magnification and DNA damage was quantitated using the Tail Moment parameter (i.e., the distance between the barycenter of the head and the tail of the comet multiplied by the percentage of DNA within the tail of the comet). A minimum of 50 cell comets were analyzed for each sample, using ALKOMET version 3.1 image analysis software, and values are averages of tail moments for the entire cell population per sample.

[5] = target: T1, cytoplasmic domain of the insulin receptor β subunit (Homo sapiens, UniProt P06213); assay: insulin receptor kinase ELISA; format: biochemical; conditions: 1-100 μM range
T1 construct: Baculovirus-expressed cytoplasmic domain of the insulin receptor β subunit; purchased Biomol Research laboratories Inc., USA; host or cells: Baculovirus expression
Procedure: Conditions for the c-src and insulin kinase assays were similar to those of the EGFR kinase assay, with the exception of the addition of 1 mM manganese chloride to the assay buffer, and a final ATP concentration of 100 μM. The reaction was terminated by the addition of 50 μl of a 250 mM solution of EDTA prior to aspiration.

[6] = target: T2, HER2 (erbB2) gene product p185neu (Homo sapiens, UniProt P04626); assay: Heregulin-stimulated phosphorylation of p185neu in MDA-MB453 cells; format: cell-based
T2 construct: heregulin (HRG)-stimulated phosphorylation of the HER2 (erbB2) gene product; endogenous in cells
T2 sequence (P04626 23-1255): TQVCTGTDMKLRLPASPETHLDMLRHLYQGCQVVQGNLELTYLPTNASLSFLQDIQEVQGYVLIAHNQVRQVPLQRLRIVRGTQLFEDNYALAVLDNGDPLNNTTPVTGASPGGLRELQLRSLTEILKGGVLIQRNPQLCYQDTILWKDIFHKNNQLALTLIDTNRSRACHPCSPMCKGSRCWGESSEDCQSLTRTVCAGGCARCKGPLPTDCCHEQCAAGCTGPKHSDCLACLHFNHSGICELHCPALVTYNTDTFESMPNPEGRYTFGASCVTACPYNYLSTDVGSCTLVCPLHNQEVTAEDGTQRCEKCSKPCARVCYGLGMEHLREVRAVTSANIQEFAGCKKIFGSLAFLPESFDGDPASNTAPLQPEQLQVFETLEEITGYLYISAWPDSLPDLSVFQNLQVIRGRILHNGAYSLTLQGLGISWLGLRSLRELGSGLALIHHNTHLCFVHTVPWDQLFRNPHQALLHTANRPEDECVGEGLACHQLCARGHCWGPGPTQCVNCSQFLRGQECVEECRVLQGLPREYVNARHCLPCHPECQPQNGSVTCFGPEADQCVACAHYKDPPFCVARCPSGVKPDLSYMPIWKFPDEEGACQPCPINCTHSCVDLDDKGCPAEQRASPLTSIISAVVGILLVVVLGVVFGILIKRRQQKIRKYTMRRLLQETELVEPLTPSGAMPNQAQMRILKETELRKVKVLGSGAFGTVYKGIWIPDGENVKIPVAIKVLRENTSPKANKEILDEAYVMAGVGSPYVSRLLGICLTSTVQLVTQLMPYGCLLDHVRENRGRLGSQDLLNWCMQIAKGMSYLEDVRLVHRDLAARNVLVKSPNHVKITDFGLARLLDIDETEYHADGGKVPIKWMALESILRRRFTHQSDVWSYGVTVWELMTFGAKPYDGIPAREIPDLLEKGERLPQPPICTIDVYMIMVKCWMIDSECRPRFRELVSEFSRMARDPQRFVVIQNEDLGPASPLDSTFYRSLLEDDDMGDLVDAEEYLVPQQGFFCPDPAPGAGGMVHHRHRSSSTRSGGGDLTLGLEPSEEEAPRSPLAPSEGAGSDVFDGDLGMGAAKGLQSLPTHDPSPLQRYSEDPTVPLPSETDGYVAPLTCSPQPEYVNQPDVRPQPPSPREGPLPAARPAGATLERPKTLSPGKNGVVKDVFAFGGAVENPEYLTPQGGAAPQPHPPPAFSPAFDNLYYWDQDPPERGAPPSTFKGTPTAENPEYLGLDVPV

T1 sequence (P06213 980-1382 limits assumed): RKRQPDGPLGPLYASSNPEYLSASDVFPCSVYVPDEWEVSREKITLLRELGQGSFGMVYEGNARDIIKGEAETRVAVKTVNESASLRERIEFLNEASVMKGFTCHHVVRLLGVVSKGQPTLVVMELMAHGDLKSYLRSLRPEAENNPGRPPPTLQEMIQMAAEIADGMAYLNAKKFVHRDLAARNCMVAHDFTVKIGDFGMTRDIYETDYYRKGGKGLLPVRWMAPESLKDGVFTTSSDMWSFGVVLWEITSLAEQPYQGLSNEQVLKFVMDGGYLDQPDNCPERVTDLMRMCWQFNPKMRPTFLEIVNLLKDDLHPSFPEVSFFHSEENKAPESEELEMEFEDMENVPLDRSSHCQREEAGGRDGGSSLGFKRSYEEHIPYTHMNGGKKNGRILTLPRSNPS

CNN=Nc1ccc2ncnc(Nc3cccc(Cl)c3)c2c1 [BJ2000]
fold higher levels of DNA damage in the EGFR transfectant [1]: more than 2 fold | concentration giving 100% growth inhibition ([2]; EGF or TGFα-induced proliferation, NIH3T3HER14, 72 h): 1 µM | concentration giving 100% inhibition ([2]; PDGF-stimulated growth, NIH3T3HER14, 72 h): approximately 30 μM | fold less effective in inhibiting PDGF-stimulated growth ([2]; versus EGF or TGFα-induced proliferation, NIH3T3HER14): approximately 30 fold | inhibition of EGF-induced MAPK phosphorylation [3]: complete inhibition; also recorded: block MAPK phosphorylation | DNA damage (comet tail moment) [4]: induced dose-dependent DNA damage; also recorded: induced significant DNA damage | effect on insulin receptor TK [5]: nor did it exert any effect on insulin receptor TK | effect on heregulin (HRG)-stimulated phosphorylation of p185neu [6]: able to block
